In patent US12440471B2, “Compositions and methods for the treatment of bronchopulmonary dysplasia (BPD) and BPD-associated pulmonary hypertension” (AyuVis Research, Inc., priority 2021, dated 2025):

Test system: hyperoxia-exposed BPD mouse model
Test: Hyperoxia-exposed BPD mouse model: dose response and lung morphometry
Format: in vivo
Method: Simultaneously, the AVR-48 nanosuspension formulation IN (0.11 mg/kg) was tested as well as in solution form, IP and IV (10 mg/kg) (through the facial vein), and confirmed that all routes of administration gave similar outcomes. […] From the PK study, as described above, the bioavailability of the drug in the plasma and lungs were similar when delivered as solution formulation via either IN or IP routes. As the goal of this study is to develop AVR-48 as a commercially viable and applicable therapeutic candidate for BPD, the IP route was selected as the preferred mode of drug delivery in neonatal murine pups, with the rationale that it would be easier to deliver the drug systemically to preterm babies IV, rather than the IN route. The results and outcome of all the routes of administration have been presented in a cumulative manner, as the endpoint was similar for all routes of administration. […] FIG. 1 is a dose response study of AVR-48 at different doses of […], given IP. ****p<0.0001. N=5-7 mice per group. 10 mg/kg (IP) was selected as the most efficacious dose. IP: intraperitoneal; Hyp: hyperoxia; BPD: Bronchopulmonary dysplasia.
Formulation of AVR-48 for efficacy and toxicokinetic studies. For the mouse dose response efficacy studies, AVR-48 was reconstituted in 0.9% sterile normal saline to give a final dose concentration of […] as a colorless solution, and injected IP (30 μl) on P2 and P4. The PLGA encapsulated AVR-48 or the GFP-tagged analog was resuspended in deionized sterile water to make a nanosuspension with final dose concentration of 0.025, 0.05 and 0.11 mg/kg/drop. The surfactant Curosurf® (Cheisi Parma, Italy), available commercially, was delivered IN at a volume of 3 μl per nostril, on P2 and P4. For the toxicokinetic study of AVR-48 in rat pups, a formulation of 10% DMSO, 20% tetraglycol, 20% PEG 400, and 50% sterile water was made fresh before administration (Shah, Das et al. 2021).
For the hyperoxia experiment, newborn pups were exposed to 100% hyperoxia (P0), along with their mothers, in cages in an airtight Plexiglas chamber (OxyCycler; Biospherix, Redfield, NY, USA) as described previously by the present inventors (Syed, Das et al., 2017, Leary, Das et al. 2019, Das, Acharya et al. 2020, relevant portions incorporated herein) for 4 consecutive days (till P4) and removed to RA on P5 to be recovered till P14, so as to emulate the human BPD condition. All pups were sacrificed on P14 for further experimental analyses. The pups without any hyperoxia exposure served as the corresponding RA (normoxia) controls.
Histology, immunohistochemistry and immunofluorescence. Both the RA control and BPD mice were anesthetized (using an overdose of a cocktail of xylazine-ketamine) and lung and heart tissues were harvested after perfusion and fixed overnight in 4% paraformaldehyde. Fixed tissues were then washed in fresh PBS, dehydrated using 70% ethanol, cleared, and embedded in paraffin to be sectioned and stained with hematoxylin and eosin (H&E) for lung morphometry or immunohistochemistry/immunofluorescence as previously described (Leary, Das et al. 2019, Das, Achaiya et al. 2020, Das, Curstedt et al. 2020). Immunofluorescence staining was done for Ki67 (Abcam, 1:10) and Von Wilebrand Factor (vWF-DAKO, 1:100) on lung paraffin sections following the protocol as described earlier (Leary, Das et al. 2019) while TUNEL staining was done following the manufacturer's instructions (Roche).
Morphometry and quantification. To study chord length, septal thickness and radial alveolar count in the lungs, RV, LV and IVS thickness, 5 μm-thick left-lobe lung and heart paraffin-embedded sections were stained with H&E. Multiple randomly chosen areas (at least 10 areas) from each section were photographed using 100× total magnification. […]

[1] = 2 doses IP 10 mg/kg on P2 and P4, comparable to RA controls
[2] = IP dosing, doses 0.5, 2.0, 5.0 and 10 mg/kg

With `CC(=O)N[C@@H]1C(Oc2ccc([N+](=O)[O-])cc2)OC(CO)C(O)C1O` (stereo partly shown) [AVR-48] the “prevention of the BPD phenotypes” value (10 mg/kg IP) was greater than 80%, the “chord length (alveolar sacs)” value [1] was “regained their normal shape and size” and the “septal thickness (alveolar sacs)” value [1] was “regained their normal shape and size”. The “radial alveolar counts (RAC)” value (2 doses IP 10 mg/kg on P2 and P4, vs BPD) was “improved”, the chord length (AVR-48 administered adjuvantly with CS (Curosurf IN)) was “normal” and the “interaction between the drug and CS” value (AVR-48 administered adjuvantly with CS in mouse pups) was “no adverse effect”. For the same molecule, the minimum efficacious dose [2] was 5.0 mg/kg, the “optimum / most efficacious dose” value [2] was 10 mg/kg and the minimum efficacious dose (juvenile mouse) was 5 mg/kg/day. The “inflammatory cytokines in neonatal mouse pups with BPD” value (mouse, in vivo) was “decrease inflammatory cytokines”.
